{"source": "patent US7605135B2", "about": "(priority 2003, dated 2009)", "key": {"SARS-CoV": {"tested_on": "SARS-CoV", "settings": "fRhK4 cell line; for EC50 (μg/ml) at 48 hrs / EC50 (μg/ml) at 72 hrs: 10 strains of SARS-CoV, inhibition of cytopathic effect to 50% of control"}, "[1]": {"settings": "human, in vivo; cited from earlier work"}, "[2]": {"settings": "in vivo, cited from earlier work"}, "HIV-1": {"tested_on": "HIV-1", "settings": "cited from earlier work"}}, "note": "Read-outs that look alike come from different tables or passages of the source.", "data": [{"substance": "baicalin", "values": [{"measurement": "EC50 (μg/ml) at 48 hrs", "setting": "SARS-CoV", "value": "12.5 to 25", "unit": "µg/mL"}, {"measurement": "EC50 (μg/ml) at 48 hrs", "setting": "SARS-CoV; listed as baicalin", "value": "12.5 to 25", "unit": "µg/mL"}, {"measurement": "EC50 (μg/ml) at 72 hrs", "setting": "SARS-CoV", "value": "25 to 50", "unit": "µg/mL"}, {"measurement": "EC50 (μg/ml) at 72 hrs", "setting": "SARS-CoV; listed as baicalin", "value": "25 to 50", "unit": "µg/mL"}, {"measurement": "SI = CC50/EC50 at 48 hrs", "setting": "SARS-CoV; selectivity index", "value": ">8"}, {"measurement": "Serum level (after intravenous administration) Cmax", "setting": "[1]", "value": 74}, {"measurement": "Serum level (after oral administration) Cmax", "setting": "[2]; human, po", "value": "Cmax = 60 ng/mL (189.8 mg/person, in human). The amount (i.e., 189.8 mg/"}, {"measurement": "Half life (in humans)", "setting": "[2]; human", "value": "~3 hrs in humans Muto R et al., “The chemical structure of new substance"}, {"measurement": "Serum concentration after oral dose", "setting": "[2]; po", "value": 470, "unit": "ng/mL"}, {"measurement": "CC50", "setting": "fRhK4 cell line", "value": ">100", "unit": "µg/mL"}, {"measurement": "Antiviral effect", "setting": "HIV-1", "value": "Inhibition of HIV-1 [Kitamura K et al., “Baicalin: an inhibitor of HIV-1"}]}]}
